This passage reports EC50 results from US7183295B2, “PPAR-activating compound and pharmaceutical composition comprising the compound” (Kowa Co., Ltd., priority 2003, dated 2007).

Holding throughout (type): cell-based
For assay [1], the target named is T1, human PPARα (166–467aa) ligand binding domain (Homo sapiens, UniProt Q07869).
T1 construct: human PPARα (166–467aa); expressed in transfected cells; host or cells: COS-7
T1 sequence (Q07869 166-467): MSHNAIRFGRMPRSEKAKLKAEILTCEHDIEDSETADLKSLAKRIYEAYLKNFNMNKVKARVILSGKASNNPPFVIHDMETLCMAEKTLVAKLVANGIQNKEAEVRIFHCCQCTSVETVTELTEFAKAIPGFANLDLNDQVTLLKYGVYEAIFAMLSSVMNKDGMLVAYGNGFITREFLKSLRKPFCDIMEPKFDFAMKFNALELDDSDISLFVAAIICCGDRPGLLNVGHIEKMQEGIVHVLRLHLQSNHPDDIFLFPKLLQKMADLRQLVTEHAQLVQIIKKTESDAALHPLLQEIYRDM
The experiment in a line: PPAR transfection (Gal4-LBD luciferase reporter) assay, hPPARα. The note with it: transfected COS-7 cells, 16 hours, luciferase activity; read-out: hPPAR; EC50 α (agonist activity). How it is done: (§1) COS-7 cells, which is African green monkey kidney cell line, were used for all transfection assays. Cells were cultured in DMEM medium supplemented with 10% fetal bovine serum, glutamic acid, and an antibiotic under humidified 5% CO2 atmosphere.
(§2) Cells were transfected by lipofectamine reagent with a mixture containing expression plasmid, firefly luciferase reporter plasmid. And a β-galactosidase expression plasmid used as an internal control for transfection efficiency.
(§3) Transiently transfected cells were incubated with DMEM with 0.2% FCS with or without compound. And after 16 hours, luciferase activity and β-galactosidase activity of cell lysate were measured.
(§4) Each compound was dissolved in and diluted with dimethyl sulfoxide (DMSO), and the DMSO concentration of the DMEM medium (containing 0.2% serum) was adjusted to 0.1% upon treatment of cells.

In assay [2] the target is T2, human PPARγ (182–505aa) ligand binding domain (Homo sapiens, UniProt P37231).
T2 construct: γ(182–505aa); expressed in transfected cells; host or cells: COS-7
T2 sequence (P37231 182-505): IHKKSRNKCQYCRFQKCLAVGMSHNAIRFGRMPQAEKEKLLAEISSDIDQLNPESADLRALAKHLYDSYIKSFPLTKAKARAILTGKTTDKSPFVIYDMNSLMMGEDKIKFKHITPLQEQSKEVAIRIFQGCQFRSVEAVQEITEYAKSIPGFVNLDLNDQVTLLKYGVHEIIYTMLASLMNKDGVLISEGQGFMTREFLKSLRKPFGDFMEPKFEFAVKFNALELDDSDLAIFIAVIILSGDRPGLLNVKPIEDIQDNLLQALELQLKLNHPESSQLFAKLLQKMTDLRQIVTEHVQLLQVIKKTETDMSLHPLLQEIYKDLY
The experiment in a line: PPAR transfection (Gal4-LBD luciferase reporter) assay, hPPARγ. The note with it: transfected COS-7 cells, 16 hours, luciferase activity; read-out: hPPAR; EC50 γ (agonist activity). As to the method:
as §1, §2, §3, §4

Assay [3] has as its target T3, human PPARδ (137–441aa) ligand binding domain (Homo sapiens, UniProt Q03181).
T3 construct: δ (137–441aa); expressed in transfected cells; host or cells: COS-7
T3 sequence (Q03181 137-441): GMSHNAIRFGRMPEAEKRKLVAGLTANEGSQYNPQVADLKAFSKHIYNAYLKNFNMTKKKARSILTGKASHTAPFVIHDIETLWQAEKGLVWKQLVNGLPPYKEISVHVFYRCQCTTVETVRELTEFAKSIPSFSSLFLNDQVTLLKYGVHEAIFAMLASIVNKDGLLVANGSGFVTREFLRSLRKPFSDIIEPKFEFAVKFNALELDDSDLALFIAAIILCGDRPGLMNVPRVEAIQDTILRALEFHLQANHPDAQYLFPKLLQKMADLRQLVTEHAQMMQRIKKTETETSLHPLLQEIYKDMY
The experiment in a line: PPAR transfection (Gal4-LBD luciferase reporter) assay, hPPARδ. The note with it: transfected COS-7 cells, 16 hours, luciferase activity; read-out: hPPAR; EC50 δ (agonist activity). As to the method:
as §1, §2, §3, §4
On the technique in general: In a reporter assay the amount or activity of a reporter protein is the signal.

pEC50: −log10 of the molar value. Some results are limits rather than exact numbers.

As to `CC(Oc1cccc(CCN(CCOc2ccc(F)cc2)c2nc3cc(Cl)ccc3o2)c1)C(=O)O` (stereo not drawn) [Example 36, 2-[3-[2-[N-(5-Chlorobenzoxazol-2-yl)-N-2-(4-fluorophenoxy)ethyl]aminoethyl]phenoxy]propionic acid], the pEC50 in assay [1] was 7.30; in assay [2] it was 5.68; in assay [3], 5.80.

Regarding `CCC(Oc1cccc(CN(CCOc2ccc(F)cc2)c2nc3ccc(F)cc3o2)c1)C(=O)O` (stereo not drawn) [Example 183], the pEC50 in assay [1] was 8.40; in assay [2] it was 6.40; in assay [3] it was 5.62.

As for `CC(Oc1cccc(CN(CCCOc2cccc(N(C)C)c2)c2nc3ccccc3o2)c1)C(=O)O` (stereo not drawn) [Example 19, 2-[3-[[N-(Benzoxazol-2-yl)-N-3-(3-dimethylaminophenoxy)propyl]aminomethyl]phenoxy]propionic acid], the pEC50 in assay [1] is 10.00; in assay [2], 5.92; in assay [3] it was less than 4.00.

For the compound `CC(C)(Oc1cccc(CN(CCOc2ccc(Cl)cc2)c2nc3ccccc3o2)c1)C(=O)O` [Example 6, 2-[3-[[N-(Benzoxazol-2-yl)-N-2-(4-chlorophenoxy)ethyl]aminomethyl]phenoxy]-2-methylpropionic acid], the pEC50 in assay [1] was 7.15; in assay [2], 5.46; in assay [3] it was less than 4.00.

`CCC(Oc1cccc(CCN(CCCOc2ccc(F)cc2)c2nc3ccccc3o2)c1)C(=O)O` (stereo not drawn) [Example 50, 2-[3-[2-[N-(Benzoxazol-2-yl)-N-3-(4-fluorophenoxy)propyl]aminoethyl]phenoxy]butyric acid]: the pEC50 in assay [1] was 7.40; in assay [2] it was 5.59; in assay [3], 5.85.

With `CC(Oc1cccc(CCN(CCOc2ccccc2)c2nc3cc(F)ccc3o2)c1)C(=O)O` (stereo not drawn) [Example 43, 2-[3-[2-[N-(5-Fluorobenzoxazol-2-yl)-N-2-phenoxyethyl]aminoethyl]phenoxy]propionic acid], the pEC50 in assay [1] is 7.15; in assay [2] it was less than 4.00; in assay [3], 5.28.

`CCC(Oc1cccc(CCN(CCOc2ccc(OC)cc2)c2nc3cc(Cl)ccc3o2)c1)C(=O)O` (stereo not drawn) [Example 47, 2-[3-[2-[N-(5-Chlorobenzoxazol-2-yl)-N-2-(4-methoxyphenoxy)ethyl]aminoethyl]phenoxy]butyric acid]: the figures for the pEC50 in assay [1], in assay [2] and in assay [3] were 7.40, less than 4.30 and 5.82, respectively.

Take `CC[C@@H](Oc1cccc(CN(CCCOc2ccc(F)cc2)c2nc3ccccc3o2)c1)C(=O)O` [Example 87, (R)-2-[[3-[N-(Benzoxazol-2-yl)-N-3-(4-fluorophenoxy)propyl]aminomethyl]phenoxy]butyric acid]: the pEC50 in assay [1] was 8.52; in assay [2], 6.03; in assay [3] it was 5.92.

Take `COc1ccc2oc(N(CCCOc3ccc(Cl)cc3)Cc3cccc(OC(C)C(=O)O)c3)nc2c1` (stereo not drawn) [Example 206]: the pEC50 in assay [1] was 8.00; in assay [2] it was 5.85; in assay [3], 5.77.

Turning to `C[C@@H](Oc1cccc(CN(CCCOc2ccccc2)c2nc3ccccc3o2)c1)C(=O)O` [Example 88, (R)-2-[[3-[N-(Benzoxazol-2-yl)-N-3-phenoxypropyl]aminomethyl]phenoxy]propionic acid], the pEC50 in assay [1] is 7.96; in assay [2] it was 5.54; in assay [3], 5.43.

Consider `CC(Oc1cccc(CN(CCCOc2ccc3c(c2)OCO3)c2nc3ccccc3o2)c1)C(=O)O` (stereo not drawn) [Example 157], for which the pEC50 in assay [1] is 8.40; in assay [2], 5.92; in assay [3], 5.89.

Turning to `COc1ccc(OCCCN(Cc2cccc(OC(C)C(=O)O)c2)c2nc3ccccc3o2)cc1` (stereo not drawn) [Example 20, 2-[3-[[N-(Benzoxazol-2-yl)-N-3-(4-methoxyphenoxy)propyl]aminomethyl]phenoxy]propionic acid], the results for the pEC50 in assay [1], in assay [2] and in assay [3] were 8.00, 5.92 and 5.70, respectively.

On to `CC(Oc1cccc(CN(CCCOc2ccc(F)cc2)c2nc3cc4c(cc3o2)OCO4)c1)C(=O)O` (stereo not drawn) [Example 169], for which the pEC50 in assay [1] was 8.40; in assay [2], less than 5.00; in assay [3] it was 5.70.
